Test [1] has as its system adjuvant arthritis. The experiment in a line: Adjuvant arthritis in rats, arthritis score (Example 2).
Test [2] deals with adjuvant arthritis. The test can be described thus: Adjuvant arthritis in rats, arthritis score (Example 1 and Comparative Examples 1-3). Particulars: test material 10% in 0.5% CMC, 1 ml/100 g oral once a day, average ± standard error. Type of test: in vivo, Female Lewis rats.

Among the data in US8367614B2, “Rheumatoid arthritis-preventive agent for oral intake” (Calpis Co., Ltd, priority 2006, dated 2013) are Arthritis score values, retold here.

For the compound `CC(C)Cc1ccc(C(C)C(=O)O)cc1` (stereo not drawn) [Ibuprofen], the Arthritis score in the test with adjuvant arthritis [1] (Ibuprofen 0.3% in 0.5% CMC, 1 ml/100 g oral once a day, day 0) is 0; in the test with adjuvant arthritis [1] (Ibuprofen 0.3%, oral once a day, day 5) it was 0; in the test on adjuvant arthritis [1] (Ibuprofen 0.3%, oral once a day, day 9) it was 0.1 ± 0.1; in the test with adjuvant arthritis [1] (Ibuprofen 0.3%, oral once a day, day 14) it was 6.5 ± 0.6; in the test with adjuvant arthritis [1] (Ibuprofen 0.3%, oral once a day, day 19) it was 9.0 ± 0.5; in the test with adjuvant arthritis [1] (Ibuprofen 0.3%, oral once a day, day 21), 9.5 ± 0.3.

As to sodium caseinate [Comp. Ex. 2], the Arthritis score in the test with adjuvant arthritis [2] (day 0 to 21, day 0, max 12 points) worked out at 0.00; in the test on adjuvant arthritis [2] (day 5) it was 0.00; in the test with adjuvant arthritis [2] (day 9) it was 1.25 ± 0.37; in the test on adjuvant arthritis [2] (day 14), 8.25 ± 0.62; with adjuvant arthritis [2] (day 19) it was 10.50 ± 0.33; in the test with adjuvant arthritis [2] (day 22), 10.38 ± 0.32.
